From patent publication US10040759B2, “Substituted azetidinyl compounds as GlyT1 inhibitors” (DART NEUROSCIENCE (CAYMAN) LTD., priority 2014, dated 2018)

target: T1, GlyT1 (Homo sapiens, UniProt P48067); experiment: Glycine Transporter 1 (GlyT1) uptake assay, scintillation proximity assay of [14C]-glycine uptake; type: cell-based; settings: [14C]-glycine uptake; read-out: GlyT1 (pIC50) (converted)
T1 construct: expressed in transfected cells
T1 sequence (P48067 1-706): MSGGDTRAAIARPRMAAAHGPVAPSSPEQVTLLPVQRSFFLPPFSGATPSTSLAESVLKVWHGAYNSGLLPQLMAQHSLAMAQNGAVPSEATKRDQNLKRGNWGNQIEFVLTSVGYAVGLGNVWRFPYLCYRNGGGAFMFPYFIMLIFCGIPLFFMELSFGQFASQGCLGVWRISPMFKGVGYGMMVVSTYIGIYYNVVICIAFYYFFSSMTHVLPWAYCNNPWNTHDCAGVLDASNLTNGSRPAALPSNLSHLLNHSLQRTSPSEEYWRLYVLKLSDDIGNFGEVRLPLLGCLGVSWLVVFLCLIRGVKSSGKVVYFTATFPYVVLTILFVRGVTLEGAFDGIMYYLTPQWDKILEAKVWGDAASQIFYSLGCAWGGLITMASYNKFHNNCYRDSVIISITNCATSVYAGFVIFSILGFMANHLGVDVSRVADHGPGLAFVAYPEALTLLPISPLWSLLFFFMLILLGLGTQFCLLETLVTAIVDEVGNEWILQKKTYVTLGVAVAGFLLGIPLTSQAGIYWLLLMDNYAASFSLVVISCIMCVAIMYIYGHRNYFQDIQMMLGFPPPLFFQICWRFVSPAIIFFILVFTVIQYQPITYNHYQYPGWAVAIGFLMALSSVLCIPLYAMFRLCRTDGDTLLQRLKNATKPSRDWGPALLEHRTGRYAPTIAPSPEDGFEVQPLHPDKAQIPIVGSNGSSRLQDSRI
Method in brief: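 IC50 values were derived by four-parameter logistic fitting of counts. The 2× compound solutions were made by 1:100 dilution into HBSS of DMSO serial dilutions.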

Q: For COc1c(S(C)(=O)=O)ccc(OCC(F)(F)F)c1C(=O)N1CC(Oc2ccc(C(F)(F)F)cc2)C1 [Example 223, 1-[3-Methanesulfonyl-2-methoxy-6-(2,2,2-trifluoroethoxy)benzoyl]-3-[4-(trifluoromethyl)phenoxy]azetidine], which IC50 is on record?
A: 0.1 to 1 µM

Q: For COc1c(S(C)(=O)=O)ccc(OCC(F)(F)F)c1C(=O)N1CC(Oc2ccc(F)cc2C)C1 [Example 224, 3-(4-Fluoro-2-methylphenoxy)-1-[3-methanesulfonyl-2-methoxy-6-(2,2,2-trifluoroethoxy)benzoyl]azetidine], which IC50 is on record?
A: 0.1 to 1 µM

Q: Which IC50 does the source give for COc1c(S(C)(=O)=O)ccc(OCC(F)(F)F)c1C(=O)N1CC(Oc2c(F)cc(F)cc2F)C1 [Example 225, 1-[3-Methanesulfonyl-2-methoxy-6-(2,2,2-trifluoroethoxy)benzoyl]-3-(2,4,6-trifluorophenoxy)azetidine] here?
A: 0.1 to 1 µM

Q: For COc1c(S(C)(=O)=O)ccc(OCC(F)(F)F)c1C(=O)N1CC(Oc2cc(F)c(F)cc2F)C1 [Example 226, 1-[3-Methanesulfonyl-2-methoxy-6-(2,2,2-trifluoroethoxy)benzoyl]-3-(2,4,5-trifluorophenoxy)azetidine], which IC50 is on record?
A: 0.1 to 1 µM

Q: COc1c(S(C)(=O)=O)ccc(OCC(F)(F)F)c1C(=O)N1CC(Oc2ccc(F)cc2F)C1 [Example 227, 3-(2,4-Difluorophenoxy)-1-[3-methanesulfonyl-2-methoxy-6-(2,2,2-trifluoroethoxy)benzoyl]azetidine] was tested. Which IC50 did it give?
A: 0.1 to 1 µM

Q: With COc1c(S(C)(=O)=O)ccc(OCC(F)(F)F)c1C(=O)N1CC(c2ccc(F)c(F)c2)C1 [Example 228, 3-(3,4-Difluorophenyl)-1-[3-methanesulfonyl-2-methoxy-6-(2,2,2-trifluoroethoxy)benzoyl]azetidine] as the molecule, how does the IC50 read?
A: 0.1 to 1 µM

Q: How did the IC50 turn out when COc1c(S(C)(=O)=O)ccc(OCC(F)(F)F)c1C(=O)N1CC(c2ccc(C(F)(F)F)cn2)C1 [Example 229, 2-{1-[3-Methanesulfonyl-2-methoxy-6-(2,2,2-trifluoroethoxy)benzoyl]azetidin-3-yl}-5-(trifluoromethyl)pyridine] was run?
A: 0.1 to 1 µM

Q: How did the IC50 turn out when COc1c(S(C)(=O)=O)ccc(OCC(F)(F)F)c1C(=O)N1CC(c2ncc(C(F)(F)F)cc2Cl)C1 [Example 230, 3-Chloro-2-{1-[3-methanesulfonyl-2-methoxy-6-(2,2,2-trifluoroethoxy)benzoyl]azetidin-3-yl}-5-(trifluoromethyl)pyridine] was run?
A: 0.1 to 1 µM

Q: With COc1c(S(C)(=O)=O)ccc(OCC(F)(F)F)c1C(=O)N1CC(c2ncc(C(F)(F)F)cc2F)C1 [Example 231, 3-Fluoro-2-{1-[3-methanesulfonyl-2-methoxy-6-(2,2,2-trifluoroethoxy)benzoyl]azetidin-3-yl}-5-(trifluoromethyl)pyridine] as the molecule, how does the IC50 read?
A: 0.1 to 1 µM

Q: For COc1c(S(C)(=O)=O)ccc(OCC(F)(F)F)c1C(=O)N1CC(Oc2ccc(Cl)cn2)C1 [Example 232, 5-Chloro-2-({1-[3-methanesulfonyl-2-methoxy-6-(2,2,2-trifluoroethoxy)benzoyl]azetidin-3-yl}oxy)pyridine], which IC50 is on record?
A: < 0.1 µM

Q: Which IC50 does the source give for COc1c(S(C)(=O)=O)ccc(O[C@@H](C)C(F)(F)F)c1C(=O)N1CC(Oc2ccc(Cl)cn2)C1 [Example 233, 5-Chloro-2-{[1-(3-methanesulfonyl-2-methoxy-6-{[(2S)-1,1,1-trifluoropropan-2-yl]oxy}benzoyl)azetidin-3-yl]oxy}pyridine] here?
A: 0.1 to 1 µM

Q: COc1c(S(C)(=O)=O)ccc(O[C@@H](C)C(F)(F)F)c1C(=O)N1CC(c2ncccc2Cl)C1 [Example 234, 3-Chloro-2-[1-(3-methanesulfonyl-2-methoxy-6-{[(2S)-1,1,1-trifluoropropan-2-yl]oxy}benzoyl)azetidin-3-yl]pyridine] was tested. Which IC50 did it give?
A: < 0.1 µM

Q: How did the IC50 turn out when COc1c(S(C)(=O)=O)ccc(OCC(F)(F)F)c1C(=O)N1CC(c2ccc(C(F)(F)F)cc2)C1 [Example 235, 1-[3-Methanesulfonyl-2-methoxy-6-(2,2,2-trifluoroethoxy)benzoyl]-3-[4-(trifluoromethyl)phenyl]azetidine] was run?
A: < 0.1 µM

Q: How did the IC50 turn out when COc1c(S(C)(=O)=O)ccc(O[C@@H](C)C(F)(F)F)c1C(=O)N1CC(c2ccc(C#N)cc2Cl)C1 [Example 236, 3-Chloro-4-[1-(3-methanesulfonyl-2-methoxy-6-{[(2S)-1,1,1-trifluoropropan-2-yl]oxy}benzoyl)azetidin-3-yl]benzonitrile] was run?
A: < 0.1 µM

Q: How did the IC50 turn out when COc1c(S(C)(=O)=O)ccc(OCC(F)(F)F)c1C(=O)N1CC(c2ccc(C#N)cc2Cl)C1 [Example 237, 3-Chloro-4-{1-[3-methanesulfonyl-2-methoxy-6-(2,2,2-trifluoroethoxy)benzoyl]azetidin-3-yl}benzonitrile] was run?
A: < 0.1 µM

Q: For COc1c(S(C)(=O)=O)ccc(OCC(C)(C)C)c1C(=O)N1CC(c2ccc(C(F)(F)F)cc2)C1 [Example 238, 1-[6-(2,2-Dimethylpropoxy)-3-methanesulfonyl-2-methoxybenzoyl]-3-[4-(trifluoromethyl)phenyl]azetidine], which IC50 is on record?
A: < 0.1 µM

Q: COc1c(S(C)(=O)=O)ccc(OCC(C)(C)C)c1C(=O)N1CC(c2ncc(C(F)(F)F)cc2Cl)C1 [Example 239, 3-Chloro-2-{1-[6-(2,2-dimethylpropoxy)-3-methanesulfonyl-2-methoxybenzoyl]azetidin-3-yl}-5-(trifluoromethyl)pyridine] was tested. Which IC50 did it give?
A: < 0.1 µM

Q: COc1c(S(C)(=O)=O)ccc(OCC(C)(C)C)c1C(=O)N1CC(Oc2c(F)cc(F)cc2F)C1 [Example 240, 1-[6-(2,2-Dimethylpropoxy)-3-methanesulfonyl-2-methoxybenzoyl]-3-(2,4,6-trifluorophenoxy)azetidine] was tested. Which IC50 did it give?
A: 0.1 to 1 µM

Q: Which IC50 does the source give for COc1c(S(C)(=O)=O)ccc(OCC(C)(C)C)c1C(=O)N1CC(Oc2cc(F)c(F)cc2F)C1 [Example 241, 1-[6-(2,2-Dimethylpropoxy)-3-methanesulfonyl-2-methoxybenzoyl]-3-(2,4,5-trifluorophenoxy)azetidine] here?
A: 0.1 to 1 µM

Q: CCS(=O)(=O)c1ccc(OC(C)C)c(C(=O)N2CC(c3ccc(C(F)(F)F)cc3)C2)c1OC [Example 242, 1-[3-(Ethanesulfonyl)-2-methoxy-6-(propan-2-yloxy)benzoyl]-3-[4-(trifluoromethyl)phenyl]azetidine] was tested. Which IC50 did it give?
A: 0.1 to 1 µM

Q: Which IC50 does the source give for CCS(=O)(=O)c1ccc(OC(C)C)c(C(=O)N2CC(c3ncc(C(F)(F)F)cc3Cl)C2)c1OC [Example 243, 3-Chloro-2-{1-[3-(ethanesulfonyl)-2-methoxy-6-(propan-2-yloxy)benzoyl]azetidin-3-yl}-5-(trifluoromethyl)pyridine] here?
A: 0.1 to 1 µM

Q: How did the IC50 turn out when CCS(=O)(=O)c1ccc(OC(C)C)c(C(=O)N2CC(Oc3c(F)cc(F)cc3F)C2)c1OC [Example 244, 1-[3-(Ethanesulfonyl)-2-methoxy-6-(propan-2-yloxy)benzoyl]-3-(2,4,6-trifluorophenoxy)azetidine] was run?
A: < 0.1 µM

Q: CCS(=O)(=O)c1ccc(OC(C)C)c(C(=O)N2CC(Oc3cc(F)c(F)cc3F)C2)c1OC [Example 245, 1-[3-(Ethanesulfonyl)-2-methoxy-6-(propan-2-yloxy)benzoyl]-3-(2,4,5-trifluorophenoxy)azetidine] was tested. Which IC50 did it give?
A: < 0.1 µM

Q: Which IC50 does the source give for COc1c(S(C)(=O)=O)ccc(O[C@@H](C)C(F)(F)F)c1C(=O)N1CC(c2ccc3ncoc3c2)C1 [Example 246, 6-[1-(3-Methanesulfonyl-2-methoxy-6-{[(2S)-1,1,1-trifluoropropan-2-yl]oxy}benzoyl)azetidin-3-yl]-1,3-benzoxazole] here?
A: < 0.1 µM

Q: COc1c(S(C)(=O)=O)ccc(OCC(F)(F)F)c1C(=O)N1CC(c2ccc3ncoc3c2)C1 [Example 247, 6-{1-[3-Methanesulfonyl-2-methoxy-6-(2,2,2-trifluoroethoxy)benzoyl]azetidin-3-yl}-1,3-benzoxazole] was tested. Which IC50 did it give?
A: < 0.1 µM

Q: Which IC50 does the source give for COc1c(S(C)(=O)=O)ccc(OC(C)C)c1C(=O)N1CC(c2ccc3ncoc3c2)C1 [Example 248, 6-{1-[3-Methanesulfonyl-2-methoxy-6-(propan-2-yloxy)benzoyl]azetidin-3-yl}-1,3-benzoxazole] here?
A: < 0.1 µM

Q: COc1c(S(C)(=O)=O)ccc(OCC(C)(C)C)c1C(=O)N1CC(c2ccc3ncoc3c2)C1 [Example 249, 6-{1-[6-(2,2-Dimethylpropoxy)-3-methanesulfonyl-2-methoxybenzoyl]azetidin-3-yl}-1,3-benzoxazole] was tested. Which IC50 did it give?
A: 0.1 to 1 µM

Q: Which IC50 does the source give for CCS(=O)(=O)c1ccc(OC(C)C)c(C(=O)N2CC(c3ccc4ncoc4c3)C2)c1OC [Example 250, 6-{1-[3-(Ethanesulfonyl)-2-methoxy-6-(propan-2-yloxy)benzoyl]azetidin-3-yl}-1,3-benzoxazole] here?
A: < 0.1 µM

Q: COc1c(S(C)(=O)=O)ccc(O[C@@H](C)C(F)(F)F)c1C(=O)N1CC(c2cc(Cl)ccc2F)C1 [Example 251, 3-(5-Chloro-2-fluorophenyl)-1-(3-methanesulfonyl-2-methoxy-6-{[(2S)-1,1,1-trifluoropropan-2-yl]oxy}benzoyl)azetidine] was tested. Which IC50 did it give?
A: < 0.1 µM

Q: How did the IC50 turn out when COc1c(S(C)(=O)=O)ccc(O[C@@H](C)C(F)(F)F)c1C(=O)N1CC(c2cccc(Cl)c2F)C1 [Example 252, 3-(3-Chloro-2-fluorophenyl)-1-(3-methanesulfonyl-2-methoxy-6-{[(2S)-1,1,1-trifluoropropan-2-yl]oxy}benzoyl)azetidine] was run?
A: < 0.1 µM
